Experimental data published in patent publication US20210267978A1, “NANOPARTICLE FORMULATIONS OF IKE AND METHODS OF USE THEREOF” (The Trustees of Columbia University in the City of New York, priority 2018, published 2021).
Read-outs that look alike come from different tables or passages of the source.

Assays:
[1] = Pharmacokinetic analysis in NCG mice bearing SUDHL6 xenografts (plasma and tumor, LC-MS); type: in vivo; details: SUDHL6-xenograft NCG mice; for AUC(0-t) / Cmax / Tmax / half-life / concentration at 24 h: mouse; for AUC(0-t) / Cmax / Tmax / half-life / concentration at 24 h / Tlast: single dose 50 mg/kg IP; for concentration at 24 h: read-out: Clast
Description: IKE was dissolved in 5% DMSO/95% HBSS at pH 4 to create a 5 mg/mL solution or 3 mg/mL solution. 5% DMSO/95% HBSS at pH 4 was used as vehicle 1. IKE PEG-PLGA nanoparticles and unfunctionalized PEG-PLGA nanoparticles (without IKE) (vehicle 2) prepared with a NanoAssemblr were dialyzed with deionized water overnight, and the water was changed at least twice. Dialyzed IKE-PEG-PLGA nanoparticles and unfunctionalized PEG-PLGA nanoparticles were concentrated by Amicon Ultra-15 Centrifugal Filter Units to create a solution with 80 mg/mL PEG-PLGA nanoparticles. All above solutions were sterilized by filtering through a 0.2 μm syringe filter.
NCG mice 6-weeks of age were injected with 10 million SUDHL-6 cells subcutaneously. Visible tumors appeared after 2 weeks. Tumor size was measured by electronic caliper every 2 days and calculated using the formula: 0.5×length×width^2. After another 2 weeks, mice were randomly separated into group of 3 mice per cage with roughly tumor size (1200 mm^3). Mice were dosed at 50 mg/kg IKE, 22 mg/kg IKE, 22 mg/kg IKE PEG-PLGA nanoparticles (equal to 600 mg/kg PEG-PLGA) using IP at one time and samples were collected at 0, 1, 2, 3, 4, 6, and 24 h with three mice per time point. Mice were dosed with Vehicle 1 and Vehicle 2 (600 mg/kg PEG-PLGA) by IP and samples were collected at 24 h. Mice were euthanized using a CO2 gas chamber before xenograft dissection and cardio puncture. Plasma samples were collected and analyzed as described above. Tumors were dissected and divided into 6 segments, frozen on dry ice, and stored at −80° C. Before IKE extraction, tumor tissue samples were thawed at room temperature and weighed. A 2.5-fold ratio of volume of phosphate-buffered saline (PBS) (mL/g) was added to the sample and homogenized using Bead Ruptor 4 at speed 4 for 30 sec. The homogenization step was repeated until the samples were homogenized well (final weight/volume was 0.4 g/mL). 100 μL of homogenized tissue (equal to 40 mg) was added to a new microfuge tube, 900 μL of acetonitrile was added. The samples were mixed for at least 5 minutes by rotating on a shaker and were sonicated for at least 30 sec prior to centrifugation for 10 min at 4,000×g and 4° C. The supernatant was removed and dried on the GeneVac overnight on the HPLC setting. After drying, the samples were resuspended in 100 μL of methanol and analyzed on the LC-MS with each sample analyzed twice. Technical replicates were averaged. The concentration of IKE in the sample was determined by comparison against a standard curve of IKE in the range of 25 to 2,500 ng/mL. Pharmacodynamic analysis of ferroptosis biomarkers is described in the RT-qPCR, glutathione, immunofluorescence, and lipidomics sections below. Pharmacokinetics parameters of IKE were assessed using Prism fitted with Lognormal of one phase exponential decay.

SUDHL6 cells = experiment: C-11 BODIPY lipid peroxidation measurement (flow cytometry); type: cell-based; details: different concentrations of IKE
Description: 0.20 million SUDHL-6 cells were seeded in sixc^− well plates and treated with DMSO, IKE, or Fer-1 at specific concentration. The final cell density of 0.05 million cells/mL. After 24 h, cells were harvested by centrifuging at 300×g for 5 min. Cells were resuspended in 500 μL HBSS containing 2 μM C11-BODIPY (BODIPY 581/591 C11) (Thermo Fisher Scientific, D3861) and incubated at 37° C. for 15 min. Cells were pelleted and resuspended in HBSS. Fluorescence intensity was measured on the FL1 channel with gating to record live cells only (gate constructed from DMSO treatment group). A minimum of 10,000 cells were analyzed per condition.

highest plasma concentration ([1]; single dose 50 mg/kg i.p.): 5.2 µg/mL | highest tumor accumulation ([1]; single dose 50 mg/kg i.p.): 2.5 µg/mL | AUC(0-t) ([1]; plasma): 10900 ng·h/mL | Cmax ([1]; plasma): 5180 ng/mL | Tmax ([1]; plasma): 1.35 h | half-life ([1]; plasma): 1.83 h | concentration at 24 h ([1]; plasma): 30 ng/mL | AUC(0-t) ([1]; tumor tissue): 9860 ng·h/mL | Cmax ([1]; tumor tissue): 2520 ng/mL | Tmax ([1]; tumor tissue): 3.3 h | half-life ([1]; tumor tissue): 3.5 h | concentration at 24 h ([1]; tumor tissue): 283 ng/mL | Tlast ([1]; plasma): 24 h | Tlast ([1]; tumor tissue): 24 h
SMILES: CC(C)Oc1ccc(C(=O)Cn2ccnc2)cc1-n1c(CN2CCN(C(=O)COc3ccc(Cl)cc3)CC2)nc2ccccc2c1=O [IKE, Imidazole ketone erastin]
lipid ROS (C11-BODIPY) (SUDHL6 cells): dose-dependent increase in lipid ROS
